In this data set the test system is rodent carcinogenicity bioassays, tumor incidence. As to the kind of experiment: CCRIS carcinogenicity studies. The method, boiled down: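 Archive of carcinogenicity, mutagenicity, tumor promotion and tumor inhibition results drawn from journals, NCI reports and other sources, expert-reviewed; covers 1985-2011 and is no longer updated.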

Activity calls are given as the source filed them. The rule behind the calls is not given here.

In the case of `CC[C@H]1CCC[C@H](O[C@H]2CC[C@H](N(C)C)[C@@H](C)O2)[C@@H](C)C(=O)C2=C[C@@H]3[C@@H](C=C[C@@H]4C[C@@H](O[C@@H]5O[C@@H](C)[C@H](OC)[C@@H](OC)[C@H]5OC)C[C@@H]34)[C@@H]2CC(=O)O1`, the carcinogen call (Species: MOUSE, Strain/Sex: CD-1/FEMALE, Route: ORAL, Dose: 0, 0.0025, 0.008, 0.024, 0.0008% IN DIET FOR 18 MO (STUDY DURATION: 18 MO), Dose: 0, 0.0025, 0.008, 0.024, 0.0008% IN DIET FOR 18 MO (STUDY DURATION: 18 MO)) is “inactive; negative”; the carcinogen call (Species: MOUSE, Strain/Sex: CD-1/FEMALE, Route: ORAL, Dose: 0.0025, 0.008, 0.036 % IN DIET FOR 18 MO (STUDY DURATION: 18 MO), Dose: 0.0025, 0.008, 0.036 % IN DIET FOR 18 MO (STUDY DURATION: 18 MO)) was “inactive; negative”; the carcinogen call (Species: MOUSE, Strain/Sex: CD-1/MALE, Route: ORAL, Dose: 0, 0.0008, 0.0025, 0.008, 0.024, 0.036% IN DIET FOR 18 MO (STUDY DURATION: 18 MO), Dose: 0, 0.0008, 0.0025, 0.008, 0.024, 0.036% IN DIET FOR 18 MO (STUDY DURATION: 18 MO)) was “inactive; negative”; the carcinogen call (Species: MOUSE, Strain/Sex: CD-1/MALE, Route: ORAL, Dose: 0.0025, 0.008, 0.036 % IN DIET FOR 18 MO (STUDY DURATION: 18 MO), Dose: 0.0025, 0.008, 0.036 % IN DIET FOR 18 MO (STUDY DURATION: 18 MO)) is “inactive; negative”; the carcinogen call (Species: RAT, Strain/Sex: F344/FEMALE, Route: ORAL, Dose: 0.005, 0.02, 0.05, 0.1% IN DIET FOR 24 MO (STUDY DURATION: 24 MO), Dose: 0.005, 0.02, 0.05, 0.1% IN DIET FOR 24 MO (STUDY DURATION: 24 MO)) is “inactive; negative”; the carcinogen call (Species: RAT, Strain/Sex: F344/MALE, Route: ORAL, Dose: 0.005, 0.02, 0.05, 0.1 % IN DIET FOR 24 MO (STUDY DURATION: 24 MO), Dose: 0.005, 0.02, 0.05, 0.1 % IN DIET FOR 24 MO (STUDY DURATION: 24 MO)) is “inactive; negative”.
As to `O=[N+]([O-])c1ccc2ccc3c([N+](=O)[O-])ccc4ccc1c2c43`, the carcinogen call (Species: HAMSTER, Strain/Sex: SYRIAN/FEMALE, Route: INTRATRACHEAL, Dose: 0, 0.5 MG IN 0.2 ML OF SALINE 1/WK FOR 26 WK (STUDY DURATION: 48 WK), Tumor Site: Type of Lesion: LUNG: ADENOCARCINOMA, HEMATOPOIETIC SYSTEM: LEUKEMIA) was “active; positive”; the carcinogen call (Species: HAMSTER, Strain/Sex: SYRIAN/MALE, Route: INTRAPERITONEAL, Dose: 0, 0.5 MG IN 0.2 ML OF SALINE 1/WK FOR 26 WK (STUDY DURATION: 48 WK), Tumor Site: Type of Lesion: LUNG: ADENOCARCINOMA, HEMATOPOIETIC SYSTEM: LEUKEMIA) was “active; positive”; the carcinogen call (Species: MOUSE, Strain/Sex: BALB/MALE, Route: SUBCUTANEOUS, Dose: 0, 0.1 MG IN DMSO 1/WK FOR 20 WK (STUDY DURATION: 60 WK), Tumor Site: Type of Lesion: INJECTION SITE: TUMOR) is “active; positive”; the carcinogen call (Species: RAT, Strain/Sex: F344/MALE, Route: SUBCUTANEOUS, Dose: 0, 0.2 MG 2/WK FOR 10 WK (STUDY DURATION: 320 D), Tumor Site: Type of Lesion: INJECTION SITE: SARCOMA) was “active; positive”; the carcinogen call (Species: RAT, Strain/Sex: F344/NS1C/MALE, Route: PULMONARY IMPLANT, Dose: 0, 0.003, 0.01, 0.03, 0.1, 0.15 MG AS A SUSPENSION IN EQUAL VOL OF BEESWAX AND TRICAPRYLIN IMPLANTED IN LEFT LUNG (STUDY, Dose: 0, 0.003, 0.01, 0.03, 0.1, 0.15 MG AS A SUSPENSION IN EQUAL VOL OF BEESWAX AND TRICAPRYLIN IMPLANTED IN LEFT LUNG (STUDY, Tumor Site: Type of Lesion: LUNG: TUMOR) was “active; positive”; the carcinogen call (Species: RAT, Strain/Sex: STRAIN CD/FEMALE, Route: INTRAGASTRIC, Dose: 0, 10 UMOL IN DMSO 3/WK FOR 4 WK (TOTAL DOSE: 16 UMOL/RAT) (STUDY DURATION: 78 WK), Tumor Site: Type of Lesion: PITUITARY GLAND: CARCINOMA) was “active; positive”. For the same molecule, the carcinogen call runs as follows: (Species: RAT, Strain/Sex: STRAIN CD/FEMALE, Route: INTRAPERITONEAL, Dose: 0, 10 UMOL IN DMSO 3/WK FOR 4 WK (TOTAL DOSE; 16 UMOL/RAT) (STUDY DURATION; 78 WK), Dose: 0, 10 UMOL IN DMSO 3/WK FOR 4 WK (TOTAL DOSE; 16 UMOL/RAT) (STUDY DURATION; 78 WK), Tumor Site: Type of Lesion: HEMATOPOIETIC SYSTEM: HISTIOCYTOMA) “active; positive”; (Species: RAT, Strain/Sex: STRAIN-CD/FEMALE, Route: SUBCUTANEOUS, Dose: 0, 6.3 UMOL (TOTAL DOSE) ADMINISTERED OVER 8 WK BEGINNING ON DAY OF BIRTH (STUDY DURATION: 67 WK), Tumor Site: Type of Lesion: INTEGUMENTARY SYSTEM: MALIGNANT FIBROUS HISTIOCYTOMA, HEMATOPOIETIC SYSTEM: LEUKEMIA) “active; positive”.
Regarding `C=CCc1ccc(OC)cc1`, the carcinogen call by setting is: (Species: MOUSE, Strain/Sex: B6C3F1/MALE, Route: INTRAPERITONEAL, Dose: 0, 4.75 UMOL TOTAL DOSE, D 1,8,15 AND 22 AFTER BIRTH, AUTOPSIED AT 13-18 MO, Dose: 0, 4.75 UMOL TOTAL DOSE, D 1,8,15 AND 22 AFTER BIRTH, AUTOPSIED AT 13-18 MO, Tumor Site: Type of Lesion: LIVER: HEPATOMA) “active; positive”; (Species: MOUSE, Strain/Sex: C3H/MALE, Route: INTRAPERITONEAL, Dose: 0, 9.45 UMOL TOTAL DOSE, D 1,8,15 AND 22 AFTER BIRTH, AUTOPSIED AT 12 MO, Dose: 0, 9.45 UMOL TOTAL DOSE, D 1,8,15 AND 22 AFTER BIRTH, AUTOPSIED AT 12 MO, Tumor Site: Type of Lesion: LIVER: HEPATOMA) “active; positive”; (Species: MOUSE, Strain/Sex: CD-1/FEMALE, Route: ORAL, Dose: 0, 0.23, 0.46% IN DIET, FOR 12 MO, Dose: 0, 0.23, 0.46% IN DIET, FOR 12 MO, Tumor Site: Type of Lesion: LIVER: HEPATOMA) “active; positive”; (Species: MOUSE, Strain/Sex: CD-1/MALE,FEMALE, Route: GAVAGE, Dose: 0, 25 UMOL/G TOTAL DOSE, 2/WK FOR 5 WK BEGINNING ON D 4 AFTER BIRTH, AUTOPSIED AT 11-14 MO, Dose: 0, 25 UMOL/G TOTAL DOSE, 2/WK FOR 5 WK BEGINNING ON D 4 AFTER BIRTH, AUTOPSIED AT 11-14 MO, Tumor Site: Type of Lesion: LIVER: HEPATOMA) “active; positive”; (Species: MOUSE, Strain/Sex: CD-1/MALE, Route: SUBCUTANEOUS, Dose: 0, 0.17, 0.35 UMOL IN 0.025 ML TRIOCTANOIN WITHIN 24 HR AFTER BIRTH THEN 0, 0.47, 0.69 UMOL IN 0.05 ML TRIOCTANOIN ON D, Dose: 0, 0.17, 0.35 UMOL IN 0.025 ML TRIOCTANOIN WITHIN 24 HR AFTER BIRTH THEN 0, 0.47, 0.69 UMOL IN 0.05 ML TRIOCTANOIN ON D, Tumor Site: Type of Lesion: LIVER: HEPATOCELLULAR CARCINOMA) “active; positive”; (Species: MOUSE, Strain/Sex: CD-1/MALE, Route: SUBCUTANEOUS, Dose: 0, 4.43, 5.19 UMOL TOTAL DOSE, D 1,8,15 AND 22 AFTER BIRTH, Dose: 0, 4.43, 5.19 UMOL TOTAL DOSE, D 1,8,15 AND 22 AFTER BIRTH, Tumor Site: Type of Lesion: LIVER: HEPATOCELLULAR CARCINOMA) “active; positive”. Moreover, the carcinogen call (Species: Mouse, Strain/Sex: ICR/Female (30 324 day survivors/Group), Route: Intraperitoneal injection, Dose: 150 mg/kg bw a wk for 17 wks, study duration 537 days, Tumor Site: Type of Lesion: Liver: Hepatocellular adenoma and carcinoma) is “active; positive (80% incidence). apparent lack of concurrent controls”.
